Laboratory results from US10479786B2, “Protein kinase inhibitors” (Princeton Drug Discovery Inc, priority 2016, dated 2019).

Legend:
ACK = target: T1, ACK (Homo sapiens, UniProt Q07912); assay: Off-chip Mobility Shift Assay, kinase inhibition; assay type: biochemical; details: recombinant ACK; for inhibition at 0.01 µM: at 10 nM
T1 construct: purchased Carna Biosciences, Inc

Mino = assay: Cell inhibition assay (PrestoBlue, 48 h); assay type: cell-based; details: Homo sapiens, Mino cells, read-out: IC50, inhibition of growth
EPHA1 = target: T2, EPHA1 (Homo sapiens, UniProt P21709); assay: Off-chip Mobility Shift Assay, kinase inhibition; assay type: biochemical; details: recombinant EPHA1; for inhibition at 0.01 µM: at 10 nM
T2 construct: purchased Carna Biosciences, Inc
T2 sequence (P21709 26-976): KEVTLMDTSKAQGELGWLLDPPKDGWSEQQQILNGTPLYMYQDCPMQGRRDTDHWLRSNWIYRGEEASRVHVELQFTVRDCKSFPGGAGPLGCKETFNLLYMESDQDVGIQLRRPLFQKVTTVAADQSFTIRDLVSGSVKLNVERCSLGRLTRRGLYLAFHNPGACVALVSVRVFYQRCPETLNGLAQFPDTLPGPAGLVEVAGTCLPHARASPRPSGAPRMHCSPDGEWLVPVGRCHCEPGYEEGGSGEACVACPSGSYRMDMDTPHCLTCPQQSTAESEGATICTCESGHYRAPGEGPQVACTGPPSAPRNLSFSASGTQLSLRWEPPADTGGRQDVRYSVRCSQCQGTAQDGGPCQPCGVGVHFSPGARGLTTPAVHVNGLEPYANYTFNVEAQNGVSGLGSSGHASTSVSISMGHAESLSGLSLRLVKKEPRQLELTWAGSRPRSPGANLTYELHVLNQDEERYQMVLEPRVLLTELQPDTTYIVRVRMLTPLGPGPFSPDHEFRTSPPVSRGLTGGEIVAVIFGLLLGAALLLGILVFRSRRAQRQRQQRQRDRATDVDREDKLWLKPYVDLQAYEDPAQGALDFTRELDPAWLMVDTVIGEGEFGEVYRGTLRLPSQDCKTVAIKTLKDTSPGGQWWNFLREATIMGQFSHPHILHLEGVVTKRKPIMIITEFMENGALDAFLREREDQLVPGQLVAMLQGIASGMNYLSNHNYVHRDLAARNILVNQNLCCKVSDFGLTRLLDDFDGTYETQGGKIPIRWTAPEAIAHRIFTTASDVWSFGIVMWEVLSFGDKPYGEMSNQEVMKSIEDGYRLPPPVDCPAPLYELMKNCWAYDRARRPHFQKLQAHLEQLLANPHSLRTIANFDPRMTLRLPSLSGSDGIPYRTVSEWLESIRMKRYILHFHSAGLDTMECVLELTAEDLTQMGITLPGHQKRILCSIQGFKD

LCK = target: T3, LCK (Homo sapiens, UniProt P06239); assay: Off-chip Mobility Shift Assay, kinase inhibition; assay type: biochemical; details: recombinant LCK; for inhibition at 0.001 µM: at 1 nM; for inhibition at 0.01 µM: at 10 nM
T3 construct: purchased Carna Biosciences, Inc

ABL(E255K) = target: T4, ABL(E255K) (Homo sapiens, UniProt P00519, E255K); assay: Off-chip Mobility Shift Assay, kinase inhibition; assay type: biochemical; details: recombinant ABL(E255K); for inhibition at 0.001 µM: at 1 nM; for inhibition at 0.01 µM: at 10 nM
T4 construct: purchased Carna Biosciences, Inc

PIK3CA/PIK3R1 = target: T5, PIK3CA/PIK3R1 (Homo sapiens, UniProt P42336); assay: Off-chip Mobility Shift Assay, kinase inhibition; assay type: biochemical; details: at 10 nM; recombinant PIK3CA/PIK3R1
T5 construct: purchased Carna Biosciences, Inc

LYNa = target: T6, LYNa (Homo sapiens, UniProt P07948); assay: Off-chip Mobility Shift Assay, kinase inhibition; assay type: biochemical; details: recombinant LYNa; for inhibition at 0.001 µM: at 1 nM; for inhibition at 0.01 µM: at 10 nM, read-out: inhibition
T6 construct: purchased Carna Biosciences, Inc

PDGFRβ = target: T7, PDGFRβ (Homo sapiens, UniProt P09619); assay: Off-chip Mobility Shift Assay, kinase inhibition; assay type: biochemical; details: recombinant PDGFRβ; for inhibition at 0.01 µM: at 10 nM, read-out: inhibition
T7 construct: purchased Carna Biosciences, Inc

BMX = target: T8, BMX (Homo sapiens, UniProt P51813); assay: Off-chip Mobility Shift Assay, kinase inhibition; assay type: biochemical; details: recombinant BMX; for inhibition at 0.001 µM: at 1 nM; for inhibition at 0.01 µM: at 10 nM
T8 construct: purchased Carna Biosciences, Inc
T8 sequence (P51813 1-675): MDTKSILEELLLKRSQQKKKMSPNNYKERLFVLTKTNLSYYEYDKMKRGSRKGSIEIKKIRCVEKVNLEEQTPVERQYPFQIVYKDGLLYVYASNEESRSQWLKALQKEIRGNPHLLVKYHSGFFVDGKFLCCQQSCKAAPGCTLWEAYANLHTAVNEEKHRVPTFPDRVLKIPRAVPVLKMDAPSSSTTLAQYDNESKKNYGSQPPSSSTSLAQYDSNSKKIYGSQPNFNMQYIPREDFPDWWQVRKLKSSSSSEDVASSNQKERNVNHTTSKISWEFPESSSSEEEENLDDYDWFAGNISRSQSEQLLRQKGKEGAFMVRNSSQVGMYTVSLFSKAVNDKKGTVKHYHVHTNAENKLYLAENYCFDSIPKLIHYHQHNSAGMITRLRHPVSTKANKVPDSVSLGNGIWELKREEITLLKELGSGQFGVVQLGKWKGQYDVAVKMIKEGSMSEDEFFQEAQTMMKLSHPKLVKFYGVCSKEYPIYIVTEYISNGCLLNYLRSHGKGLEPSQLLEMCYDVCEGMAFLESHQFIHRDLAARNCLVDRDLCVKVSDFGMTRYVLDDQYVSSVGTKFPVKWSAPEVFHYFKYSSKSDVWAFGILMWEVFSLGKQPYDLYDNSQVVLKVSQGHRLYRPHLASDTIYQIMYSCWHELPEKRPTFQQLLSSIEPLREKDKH

YES = target: T9, YES (Homo sapiens, UniProt P07947); assay: Off-chip Mobility Shift Assay, kinase inhibition; assay type: biochemical; details: recombinant YES; for inhibition at 0.001 µM: at 1 nM; for inhibition at 0.01 µM: at 10 nM
T9 construct: purchased Carna Biosciences, Inc

BTK = target: T10, BTK (Homo sapiens, UniProt Q06187); assay: Off-chip Mobility Shift Assay, kinase inhibition; assay type: biochemical; details: recombinant BTK; for inhibition at 0.001 µM: at 1 nM; for inhibition at 0.01 µM: at 10 nM
T10 construct: purchased Carna Biosciences, Inc

FMS = target: T11, FMS (Homo sapiens, UniProt P07333); assay: Off-chip Mobility Shift Assay, kinase inhibition; assay type: biochemical; details: recombinant FMS; for inhibition at 0.01 µM: at 10 nM
T11 construct: purchased Carna Biosciences, Inc

SU-DHL-4 = assay: Cell inhibition assay (PrestoBlue, 48 h); assay type: cell-based; details: Homo sapiens, SU-DHL-4, 48 h, SU-DHL-4 diffuse large B-cell lymphoma cells, read-out: IC50, inhibition of growth
PDGFRα = target: T12, PDGFRα (Homo sapiens, UniProt P16234); assay: Off-chip Mobility Shift Assay, kinase inhibition; assay type: biochemical; details: recombinant PDGFRα; for inhibition at 0.01 µM: at 10 nM, read-out: inhibition
T12 construct: purchased Carna Biosciences, Inc

FRK = target: T13, FRK (Homo sapiens, UniProt P42685); assay: Off-chip Mobility Shift Assay, kinase inhibition; assay type: biochemical; details: recombinant FRK; for inhibition at 0.01 µM: at 10 nM
T13 construct: purchased Carna Biosciences, Inc

FGR = target: T14, FGR (Homo sapiens, UniProt P09769); assay: Off-chip Mobility Shift Assay, kinase inhibition; assay type: biochemical; details: recombinant FGR; for inhibition at 0.01 µM: at 10 nM, read-out: inhibition
T14 construct: purchased Carna Biosciences, Inc

ABL = target: T15, ABL (Homo sapiens, UniProt P00519); assay: Off-chip Mobility Shift Assay, kinase inhibition; assay type: biochemical; details: recombinant ABL; for inhibition at 0.001 µM: at 1 nM; for inhibition at 0.01 µM: at 10 nM
T15 construct: purchased Carna Biosciences, Inc
T15 sequence (P00519 whole entry): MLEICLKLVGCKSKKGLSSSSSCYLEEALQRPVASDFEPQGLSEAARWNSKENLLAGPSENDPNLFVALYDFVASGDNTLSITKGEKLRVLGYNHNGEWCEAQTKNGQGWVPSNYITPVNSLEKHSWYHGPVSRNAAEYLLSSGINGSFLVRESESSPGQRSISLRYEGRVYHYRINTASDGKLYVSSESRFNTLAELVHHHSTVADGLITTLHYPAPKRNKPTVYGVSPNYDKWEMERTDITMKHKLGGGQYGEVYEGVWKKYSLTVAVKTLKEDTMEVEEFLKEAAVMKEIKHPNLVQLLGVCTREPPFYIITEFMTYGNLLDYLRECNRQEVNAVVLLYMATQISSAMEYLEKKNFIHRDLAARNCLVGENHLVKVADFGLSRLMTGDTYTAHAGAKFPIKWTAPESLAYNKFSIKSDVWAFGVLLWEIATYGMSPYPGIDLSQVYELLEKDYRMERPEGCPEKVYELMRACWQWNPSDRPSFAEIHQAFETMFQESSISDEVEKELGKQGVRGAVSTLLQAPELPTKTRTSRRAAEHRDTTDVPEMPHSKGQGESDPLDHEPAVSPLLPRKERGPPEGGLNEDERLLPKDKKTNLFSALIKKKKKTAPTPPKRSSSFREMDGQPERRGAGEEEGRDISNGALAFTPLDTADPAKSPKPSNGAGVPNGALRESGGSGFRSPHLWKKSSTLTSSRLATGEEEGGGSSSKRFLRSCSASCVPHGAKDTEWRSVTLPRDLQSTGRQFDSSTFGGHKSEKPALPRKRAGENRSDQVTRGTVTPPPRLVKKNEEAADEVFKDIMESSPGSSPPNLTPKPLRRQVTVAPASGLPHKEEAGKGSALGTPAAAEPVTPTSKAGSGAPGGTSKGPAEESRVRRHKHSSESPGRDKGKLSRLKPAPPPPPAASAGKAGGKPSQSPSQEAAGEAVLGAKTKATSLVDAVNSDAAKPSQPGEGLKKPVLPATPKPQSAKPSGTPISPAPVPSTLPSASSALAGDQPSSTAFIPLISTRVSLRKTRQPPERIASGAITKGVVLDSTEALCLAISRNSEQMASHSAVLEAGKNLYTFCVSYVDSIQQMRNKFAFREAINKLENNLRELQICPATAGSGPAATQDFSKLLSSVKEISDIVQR

T14 sequence (P09769 whole entry): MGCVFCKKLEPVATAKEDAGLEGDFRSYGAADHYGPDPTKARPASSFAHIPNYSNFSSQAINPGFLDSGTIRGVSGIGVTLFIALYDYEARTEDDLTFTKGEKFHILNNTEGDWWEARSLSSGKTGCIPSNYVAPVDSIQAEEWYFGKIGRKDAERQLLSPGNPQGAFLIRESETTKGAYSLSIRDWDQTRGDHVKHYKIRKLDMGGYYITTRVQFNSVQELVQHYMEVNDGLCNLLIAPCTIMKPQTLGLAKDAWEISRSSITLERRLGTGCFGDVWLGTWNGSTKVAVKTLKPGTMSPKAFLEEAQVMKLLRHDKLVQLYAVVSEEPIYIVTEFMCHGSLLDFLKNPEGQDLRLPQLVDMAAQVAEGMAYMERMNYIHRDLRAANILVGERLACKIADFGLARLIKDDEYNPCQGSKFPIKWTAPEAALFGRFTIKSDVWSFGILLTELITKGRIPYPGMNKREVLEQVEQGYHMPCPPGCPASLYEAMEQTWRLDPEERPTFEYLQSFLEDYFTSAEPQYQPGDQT
T10 sequence (Q06187 whole entry): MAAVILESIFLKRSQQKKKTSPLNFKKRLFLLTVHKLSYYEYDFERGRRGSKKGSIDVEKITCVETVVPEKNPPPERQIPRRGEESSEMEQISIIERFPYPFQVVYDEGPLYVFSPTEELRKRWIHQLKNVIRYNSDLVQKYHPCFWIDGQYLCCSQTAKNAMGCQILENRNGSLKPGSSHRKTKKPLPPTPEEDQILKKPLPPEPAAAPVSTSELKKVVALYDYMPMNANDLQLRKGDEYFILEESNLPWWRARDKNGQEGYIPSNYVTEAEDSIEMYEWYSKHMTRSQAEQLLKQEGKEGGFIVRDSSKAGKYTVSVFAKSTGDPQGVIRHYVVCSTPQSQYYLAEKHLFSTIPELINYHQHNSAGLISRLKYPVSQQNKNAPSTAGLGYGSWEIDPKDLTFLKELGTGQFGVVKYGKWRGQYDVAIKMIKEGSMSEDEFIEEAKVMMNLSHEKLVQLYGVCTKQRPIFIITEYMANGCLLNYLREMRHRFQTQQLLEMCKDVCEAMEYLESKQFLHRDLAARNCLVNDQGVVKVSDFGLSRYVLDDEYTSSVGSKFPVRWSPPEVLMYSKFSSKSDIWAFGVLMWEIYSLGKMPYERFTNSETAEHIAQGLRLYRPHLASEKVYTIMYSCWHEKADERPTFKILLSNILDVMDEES
T9 sequence (P07947 whole entry): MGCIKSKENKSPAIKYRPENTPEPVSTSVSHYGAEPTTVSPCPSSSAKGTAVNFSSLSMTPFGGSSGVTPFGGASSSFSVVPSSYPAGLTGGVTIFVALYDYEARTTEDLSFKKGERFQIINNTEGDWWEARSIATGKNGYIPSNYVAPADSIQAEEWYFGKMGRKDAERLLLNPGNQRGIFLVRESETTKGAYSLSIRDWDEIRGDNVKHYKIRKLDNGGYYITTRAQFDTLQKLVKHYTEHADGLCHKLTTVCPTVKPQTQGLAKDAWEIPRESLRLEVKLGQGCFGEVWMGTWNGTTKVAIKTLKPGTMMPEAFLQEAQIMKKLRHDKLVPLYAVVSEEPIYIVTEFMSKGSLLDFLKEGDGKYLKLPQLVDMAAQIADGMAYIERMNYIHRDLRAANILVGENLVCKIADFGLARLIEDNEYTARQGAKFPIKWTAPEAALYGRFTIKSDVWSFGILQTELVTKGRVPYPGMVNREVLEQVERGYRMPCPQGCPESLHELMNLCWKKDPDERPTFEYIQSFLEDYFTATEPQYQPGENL
T5 sequence (P42336 whole entry): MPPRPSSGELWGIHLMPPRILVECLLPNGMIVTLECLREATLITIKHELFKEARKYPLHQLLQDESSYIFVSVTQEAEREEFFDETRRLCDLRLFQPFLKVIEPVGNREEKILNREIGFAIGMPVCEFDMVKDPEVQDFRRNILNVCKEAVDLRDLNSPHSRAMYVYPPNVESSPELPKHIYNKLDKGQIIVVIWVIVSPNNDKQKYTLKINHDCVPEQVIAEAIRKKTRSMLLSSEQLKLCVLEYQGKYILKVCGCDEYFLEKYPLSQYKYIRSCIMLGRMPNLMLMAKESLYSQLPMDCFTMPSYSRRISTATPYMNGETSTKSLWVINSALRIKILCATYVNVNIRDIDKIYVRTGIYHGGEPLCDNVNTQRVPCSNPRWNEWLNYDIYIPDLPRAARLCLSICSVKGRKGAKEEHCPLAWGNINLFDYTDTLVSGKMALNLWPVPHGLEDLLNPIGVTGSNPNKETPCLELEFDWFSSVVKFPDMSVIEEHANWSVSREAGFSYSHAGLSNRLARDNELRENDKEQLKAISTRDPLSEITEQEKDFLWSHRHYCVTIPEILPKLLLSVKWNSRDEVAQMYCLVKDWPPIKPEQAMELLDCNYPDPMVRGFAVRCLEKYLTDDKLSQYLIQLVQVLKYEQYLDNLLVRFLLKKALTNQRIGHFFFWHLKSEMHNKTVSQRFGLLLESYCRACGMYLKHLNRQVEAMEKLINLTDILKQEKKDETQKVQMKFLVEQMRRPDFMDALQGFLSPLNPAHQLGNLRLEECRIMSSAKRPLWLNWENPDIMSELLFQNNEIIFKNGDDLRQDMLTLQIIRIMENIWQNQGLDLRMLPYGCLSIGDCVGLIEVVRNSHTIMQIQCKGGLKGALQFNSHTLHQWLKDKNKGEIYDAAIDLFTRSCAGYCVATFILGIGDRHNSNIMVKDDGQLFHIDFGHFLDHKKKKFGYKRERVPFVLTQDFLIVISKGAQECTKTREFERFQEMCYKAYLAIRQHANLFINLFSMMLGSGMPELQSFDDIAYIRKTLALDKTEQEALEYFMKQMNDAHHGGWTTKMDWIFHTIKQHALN
T5 sequence (P27986 whole entry partner): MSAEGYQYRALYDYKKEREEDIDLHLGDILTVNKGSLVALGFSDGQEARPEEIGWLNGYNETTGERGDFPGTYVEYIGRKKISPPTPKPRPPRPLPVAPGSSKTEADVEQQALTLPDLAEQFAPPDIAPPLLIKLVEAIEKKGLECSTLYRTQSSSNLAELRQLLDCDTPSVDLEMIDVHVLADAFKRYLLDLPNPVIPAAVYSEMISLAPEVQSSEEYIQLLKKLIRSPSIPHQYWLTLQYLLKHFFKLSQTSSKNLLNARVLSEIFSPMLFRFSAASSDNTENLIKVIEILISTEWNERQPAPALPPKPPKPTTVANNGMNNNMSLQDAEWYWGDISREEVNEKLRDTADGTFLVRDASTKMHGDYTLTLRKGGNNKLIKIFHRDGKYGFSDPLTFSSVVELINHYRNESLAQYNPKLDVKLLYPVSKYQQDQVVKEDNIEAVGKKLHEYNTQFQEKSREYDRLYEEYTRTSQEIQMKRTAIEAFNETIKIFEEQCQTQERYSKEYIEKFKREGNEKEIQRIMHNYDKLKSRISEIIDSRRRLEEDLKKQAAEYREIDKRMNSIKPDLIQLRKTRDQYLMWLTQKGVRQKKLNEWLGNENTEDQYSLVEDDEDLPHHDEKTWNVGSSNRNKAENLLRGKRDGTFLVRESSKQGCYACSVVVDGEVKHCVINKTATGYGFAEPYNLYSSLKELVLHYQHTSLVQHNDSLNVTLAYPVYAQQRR
T4 sequence (P00519 whole entry E255K): as the sequence (P00519 whole entry) above, with E255K counted along it

Compound	inhibition at 0.01 µM (ACK) [%]	IC50 (Mino) [nM]	inhibition at 0.01 µM (EPHA1) [%]	inhibition at 0.001 µM (LCK) [%]	inhibition at 0.01 µM (LCK) [%]	inhibition at 0.001 µM (ABL(E255K)) [%]	inhibition at 0.01 µM (ABL(E255K)) [%]	inhibition at 0.01 µM (PIK3CA/PIK3R1) [%]	inhibition at 0.001 µM (LYNa) [%]	inhibition at 0.01 µM (LYNa) [%]	inhibition at 0.01 µM (PDGFRβ) [%]	inhibition at 0.001 µM (BMX) [%]	inhibition at 0.01 µM (BMX) [%]	inhibition at 0.001 µM (YES) [%]	inhibition at 0.01 µM (YES) [%]	inhibition at 0.001 µM (BTK) [%]	inhibition at 0.01 µM (BTK) [%]	inhibition at 0.01 µM (FMS) [%]	IC50 (SU-DHL-4) [nM]	inhibition at 0.01 µM (PDGFRα) [%]	further results
[2H]c1cc(C)c(NC(=O)c2cnc(Nc3cc(N4CC[C@H](O)C4)nc(C)n3)s2)c(Cl)c1 [Compound IV, N-(2-chloro-4-deutero-6-methylphenyl)-2-[[2-methyl-6-((S)-3-hydroxypyrrolidin-1-yl)pyrimidin-4-yl]amino]thiazole-5-carboxamide]	> 50	< 50	> 50	> 50	> 50	> 50	> 50	> 50	> 50	> 50	> 50	> 50	> 50	> 50	> 50	> 50	> 50	> 50	< 20	> 50	inhibition at 0.01 µM (FRK): > 50%; inhibition at 0.01 µM (FGR): > 50%; inhibition at 0.001 µM (ABL): > 50%; inhibition at 0.01 µM (ABL): > 50%
[2H]c1cc(C)c(NC(=O)c2cnc(Nc3cc(N4CCCCC4)nc(C)n3)s2)c(Cl)c1 [Compound I, N-(2-chloro-4-deuterio-6-methyl-phenyl)-2-[[2-methyl-6-(1-piperidyl)pyrimidin-4-yl]amino]thiazole-5-carboxamide]	> 50	< 50	> 50	> 50	> 50	> 50	> 50	> 50	> 50	> 50	> 50	> 50	> 50	> 50	> 50	> 50	> 50	> 50	< 20	> 50	inhibition at 0.001 µM (ACK; at 1 nM): > 50%; inhibition at 0.001 µM (EPHA1; at 1 nM): > 50%; inhibition at 0.001 µM (PDGFRβ; at 1 nM): > 50%; inhibition at 0.001 µM (FMS; at 1 nM): > 50%; inhibition at 0.001 µM (PDGFRα; at 1 nM): > 50%; inhibition at 0.001 µM (FRK; at 1 nM): > 50%; inhibition at 0.01 µM (FRK): > 50%; inhibition at 0.001 µM (FGR; at 1 nM): > 50%; inhibition at 0.01 µM (FGR): > 50%; inhibition at 0.001 µM (ABL): > 50%; inhibition at 0.01 µM (ABL): > 50%
Cc1nc(Nc2ncc(C(=O)Nc3c(C)cccc3Cl)s2)cc(N2CC[C@H](O)C2)n1 [Compound X, N-(2-chloro-6-methylphenyl)-2-[[2-methyl-6-((S)-3-hydroxypyrrolidin-1-yl)pyrimidin-4-yl]amino]thiazole-5-carboxamide]	> 50	< 50	> 50	> 50	> 50	> 50	> 50	> 50	> 50	> 50	> 50	> 50	> 50	> 50	> 50	> 50	> 50	> 50	< 20	> 50	inhibition at 0.01 µM (FRK): > 50%; inhibition at 0.01 µM (FGR): > 50%; inhibition at 0.001 µM (ABL): > 50%; inhibition at 0.01 µM (ABL): > 50%
Cc1nc(Nc2ncc(C(=O)Nc3c(C)cccc3Cl)s2)cc(N2CC[C@H](N)C2)n1 [Compound XII, N-(2-chloro-6-methylphenyl)-2-[[2-methyl-6-((S)-3-aminopyrrolidin-1-yl)pyrimidin-4-yl]amino]thiazole-5-carboxamide]	> 50	< 50	> 50	> 50	> 50	> 50	> 50	> 50	> 50	> 50	> 50	> 50	> 50	> 50	> 50	> 50	> 50	> 50	< 20	> 50	inhibition at 0.01 µM (FRK): > 50%; inhibition at 0.01 µM (FGR): > 50%; inhibition at 0.001 µM (ABL): > 50%; inhibition at 0.01 µM (ABL): > 50%
[2H]c1cc(C)c(NC(=O)c2cnc(Nc3cc(N4CC[C@@H](O)C4)nc(C)n3)s2)c(Cl)c1 [Compound V, N-(2-chloro-4-deutero-6-methylphenyl)-2-[[2-methyl-6-((R)-3-hydroxypyrrolidin-1-yl)pyrimidin-4-yl]amino]thiazole-5-carboxamide]	> 50	< 50	> 50	> 50	> 50	> 50	> 50	> 50	> 50	> 50	> 50	> 50	> 50	> 50	> 50	> 50	> 50	> 50	< 20	> 50	inhibition at 0.01 µM (FRK): > 50%; inhibition at 0.01 µM (FGR): > 50%; inhibition at 0.001 µM (ABL): > 50%; inhibition at 0.01 µM (ABL): > 50%
